Where “and” joins values, the source holds several entries; their conditions need not be identical. Identical values can stand only once. Toxic doses and inconclusive results are not listed. The calls were made as follows: active = survival T/C of 150% or more; inactive = T/C below 125% in these data.
Tested on: P388 leukemia ip, CD2F1 mice, survival T/C
Experiment: NCI In Vivo Anticancer Drug Screen. Data for tumor model P388 Leukemia (intraperitoneal) in CD2F1 (CDF1) mice
Details: endpoint: median survival time, higher = longer survival
Summary of the method: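 Mice carrying the transplanted tumor received test compound or vehicle. Survival was recorded in each group, and the value is the treated-group measurement divided by that of the vehicle-treated control group.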

[1] = dose: 100.0 mg/kg/injection, schedule: Q01DX001 (ip), vehicle: saline with Tween-80
[2] = dose: 200.0 mg/kg/injection, schedule: Q01DX001 (ip), vehicle: saline with Tween-80
[3] = dose: 50.0 mg/kg/injection, schedule: Q01DX005 (ip), vehicle: Klucel (hydroxypropylcellulose) (HPC)
[4] = dose: 100.0 mg/kg/injection, schedule: Q01DX005 (ip), vehicle: Klucel (hydroxypropylcellulose) (HPC)
[5] = dose: 200.0 mg/kg/injection, schedule: Q01DX005 (ip), vehicle: Klucel (hydroxypropylcellulose) (HPC)
[6] = dose: 50.0 mg/kg/injection, schedule: Q01DX005 (ip), vehicle: saline with Tween-80
[7] = dose: 100.0 mg/kg/injection, schedule: Q01DX005 (ip), vehicle: saline with Tween-80
[8] = dose: 12.5 mg/kg/injection, schedule: Q01DX009 (ip), vehicle: saline with Tween-80
[9] = dose: 25.0 mg/kg/injection, schedule: Q01DX009 (ip), vehicle: saline with Tween-80
[10] = dose: 50.0 mg/kg/injection, schedule: Q01DX009 (ip), vehicle: saline with Tween-80
[11] = dose: 50.0 mg/kg/injection, schedule: Q01DX009 (ip), vehicle: saline
[12] = dose: 100.0 mg/kg/injection, schedule: Q01DX009 (ip), vehicle: saline
[13] = dose: 100.0 mg/kg/injection, schedule: Q01DX009 (ip), vehicle: saline with Tween-80
[14] = dose: 12.5 mg/kg/injection, schedule: Q01DX005 (ip), vehicle: saline
[15] = dose: 25.0 mg/kg/injection, schedule: Q01DX005 (ip), vehicle: saline
[16] = dose: 400.0 mg/kg/injection, schedule: Q01DX001 (ip), vehicle: saline with Tween-80
[17] = dose: 50.0 mg/kg/injection, schedule: Q01DX009 (ip), vehicle: Klucel (hydroxypropylcellulose) (HPC)
[18] = dose: 100.0 mg/kg/injection, schedule: Q01DX009 (ip), vehicle: Klucel (hydroxypropylcellulose) (HPC)
[19] = dose: 200.0 mg/kg/injection, schedule: Q01DX009 (ip), vehicle: Klucel (hydroxypropylcellulose) (HPC)

Measured: T/C

O=NN(Cc1cccnc1)C(=O)NC1CCCCC1
inactive: dose: 25.0 mg/kg/injection, schedule: Q01DX001 (ip), vehicle: distilled water + Tween-80 109 % of control | dose: 50.0 mg/kg/injection, schedule: Q01DX001 (ip), vehicle: distilled water + Tween-80 98 % of control | dose: 100.0 mg/kg/injection, schedule: Q01DX001 (ip), vehicle: distilled water + Tween-80 100 % of control

CSc1nnc2nc[nH]n12
inactive: [1] 102 % of control | [2] 98 % of control

CCOc1cc2c(cc1C(C)c1ccc(OCc3ccccc3)c(OC)c1)OCO2 (stereo unspecified)
inactive: [3] 97 % of control | [4] 97 % of control | [5] 92 % of control

N#Cc1c(C(=O)NN)cc(-c2ccc3ccccc3c2)[nH]c1=O
inactive: [6] 100 % of control | [7] 98 % of control

CCCCCCCCCCCCCC1=NCCN1CCN
inactive: dose: 6.25 mg/kg/injection, schedule: Q01DX009 (ip), vehicle: saline with Tween-80 108 % of control and 94 % of control | [8] 105 % of control and 108 % of control and 109 % of control | [9] 107 % of control and 108 % of control and 111 % of control | [10] 99 % of control and 108 % of control | [11] 96 % of control | [12] 87 % of control

COC(=O)c1cnc(N)n1C
inactive: dose: 12.5 mg/kg/injection, schedule: Q01DX009 (ip), vehicle: distilled water + Tween-80 101 % of control

OCc1c(CO)c(-c2ccc(Cl)c(Cl)c2)n2c1CCC2
inactive: dose: 13.5 mg/kg/injection, schedule: Q01DX009 (ip), vehicle: saline with Tween-80 107 % of control | dose: 27.0 mg/kg/injection, schedule: Q01DX009 (ip), vehicle: saline with Tween-80 109 % of control | dose: 54.0 mg/kg/injection, schedule: Q01DX009 (ip), vehicle: saline with Tween-80 109 % of control | [13] 116 % of control and 118 % of control | dose: 200.0 mg/kg/injection, schedule: Q01DX009 (ip), vehicle: saline with Tween-80 116 % of control

CSc1nc2ncnn2c(=O)[nH]1
inactive: [8] 100 % of control | [9] 99 % of control | [6] 98 % of control | [10] 100 % of control | [7] 105 % of control | [13] 100 % of control | dose: 200.0 mg/kg/injection, schedule: Q01DX005 (ip), vehicle: saline with Tween-80 103 % of control

CC1=C(C)C2(C)c3ccccc3NC(=S)C12C (stereo unspecified)
inactive: dose: 100.0 mg/kg/injection, schedule: Q01DX001 (ip), vehicle: Klucel (hydroxypropylcellulose) (HPC) 101 % of control | dose: 200.0 mg/kg/injection, schedule: Q01DX001 (ip), vehicle: Klucel (hydroxypropylcellulose) (HPC) 105 % of control | dose: 400.0 mg/kg/injection, schedule: Q01DX001 (ip), vehicle: Klucel (hydroxypropylcellulose) (HPC) 102 % of control

COC(=O)[C@H]1O[C@H]1c1ccncc1
inactive: [3] 100 % of control and 104 % of control | [4] 103 % of control and 92 % of control | [5] 103 % of control and 94 % of control | dose: 400.0 mg/kg/injection, schedule: Q01DX005 (ip), vehicle: Klucel (hydroxypropylcellulose) (HPC) 101 % of control and 92 % of control

Cc1cc(=O)n2c(n1)Nc1ccc(Cl)cc1C2
inactive: [10] 100 % of control | [13] 98 % of control

CCOC(C[Se]c1ccccc1)OCC(F)(F)F (stereo unspecified)
inactive: dose: 50.0 mg/kg/injection, schedule: Q04DX003 (ip), vehicle: saline with Tween-80 90 % of control | dose: 100.0 mg/kg/injection, schedule: Q04DX003 (ip), vehicle: saline with Tween-80 102 % of control | dose: 200.0 mg/kg/injection, schedule: Q04DX003 (ip), vehicle: saline with Tween-80 111 % of control

ClCCCN1CCN(CCCCl)CC1
inactive: dose: 12.5 mg/kg/injection, schedule: Q01DX009 (ip), vehicle: distilled water + alcohol 113 % of control | dose: 25.0 mg/kg/injection, schedule: Q01DX009 (ip), vehicle: distilled water + alcohol 121 % of control
active: dose: 100.0 mg/kg/injection, schedule: Q01DX009 (ip), vehicle: distilled water + alcohol 157 % of control and 190 % of control

COc1ccc(C=C2C(=O)N(c3ccccc3)C(=S)N(c3ccccc3)C2=O)cc1
inactive: [3] 94 % of control | [4] 90 % of control | [5] 88 % of control

CC(O)C(O)C(O)C(C=O)OC1OC(C)C(O)C(O)C1O (stereo unspecified)
inactive: dose: 2.5 mg/kg/injection, schedule: Q01DX005 (ip), vehicle: saline + alcohol 99 % of control | dose: 5.0 mg/kg/injection, schedule: Q01DX005 (ip), vehicle: saline + alcohol 96 % of control | dose: 10.0 mg/kg/injection, schedule: Q01DX005 (ip), vehicle: saline + alcohol 110 % of control | dose: 20.0 mg/kg/injection, schedule: Q01DX005 (ip), vehicle: saline + alcohol 91 % of control

O=C1NNC(=O)C1C(=O)Nc1ccccc1
inactive: dose: 0.93 mg/kg/injection, schedule: Q01DX005 (ip), vehicle: Klucel (hydroxypropylcellulose) (HPC) 100 % of control | dose: 1.87 mg/kg/injection, schedule: Q01DX005 (ip), vehicle: Klucel (hydroxypropylcellulose) (HPC) 103 % of control | dose: 3.75 mg/kg/injection, schedule: Q01DX005 (ip), vehicle: Klucel (hydroxypropylcellulose) (HPC) 100 % of control | dose: 15.0 mg/kg/injection, schedule: Q01DX005 (ip), vehicle: Klucel (hydroxypropylcellulose) (HPC) 113 % of control

C=C1CCC(=O)NC1=O
inactive: dose: 6.25 mg/kg/injection, schedule: Q01DX005 (ip), vehicle: saline 105 % of control | [14] 102 % of control | [15] 99 % of control | [6] 116 % of control

CN1CCCCC1CCN1c2ccccc2Sc2ccc(S(C)=O)cc21 (stereo unspecified)
inactive: [14] 100 % of control and 102 % of control and 105 % of control | [15] 100 % of control and 105 % of control and 114 % of control | dose: 100.0 mg/kg/injection, schedule: Q01DX005 (ip), vehicle: saline 102 % of control and 103 % of control

COc1cc(NCC(C)(O)CN2CCCC(C)C2C)c2ncccc2c1 (stereo unspecified)
inactive: [14] 97 % of control | [15] 101 % of control | dose: 50.0 mg/kg/injection, schedule: Q01DX005 (ip), vehicle: saline 112 % of control

CCOCc1cn[nH]n1
inactive: dose: 60.0 mg/kg/injection, schedule: Q01DX005 (ip), vehicle: saline 100 % of control | dose: 120.0 mg/kg/injection, schedule: Q01DX005 (ip), vehicle: saline 100 % of control | dose: 240.0 mg/kg/injection, schedule: Q01DX005 (ip), vehicle: saline 104 % of control

COc1cc(O)c2c(c1N)C(=O)c1ccccc1C2=O
inactive: [3] 105 % of control | [4] 106 % of control | [5] 101 % of control

CCCCCCCCC1SC1CCCCCCCCOC(=O)CCCCCCCC1SC1CCCCCCCC (stereo unspecified)
inactive: [1] 95 % of control | [2] 95 % of control | [16] 95 % of control

NS(=O)(=O)c1cccc(NC(=O)c2ccco2)c1
inactive: [17] 102 % of control | [18] 101 % of control | [19] 94 % of control

CC(C)CN1CCOCC1
inactive: dose: 25.0 mg/kg/injection, schedule: Q01DX009 (ip), vehicle: saline 100 % of control | [11] 95 % of control | [12] 104 % of control

C/C1=C/C(O)C/C(C)=C\C(O)C(=O)/C=C/C2C(CC1)C2(C)C (stereo unspecified)
inactive: dose: 2.5 mg/kg/injection, schedule: Q01DX005 (ip), vehicle: distilled water + Tween-80 + alcohol 104 % of control | dose: 5.0 mg/kg/injection, schedule: Q01DX005 (ip), vehicle: distilled water + Tween-80 + alcohol 105 % of control | dose: 10.0 mg/kg/injection, schedule: Q01DX005 (ip), vehicle: distilled water + Tween-80 + alcohol 100 % of control | dose: 20.0 mg/kg/injection, schedule: Q01DX005 (ip), vehicle: distilled water + Tween-80 + alcohol 108 % of control

Cc1cc(NC(=O)C(=O)CC(=O)c2ccc(Cl)c(Cl)c2)no1
inactive: [1] 101 % of control | [2] 108 % of control | [16] 97 % of control

C/C(=N\NC(=S)N1CCCC1)c1ncccn1
inactive: dose: 12.5 mg/kg/injection, schedule: Q04DX003 (ip), vehicle: Klucel (hydroxypropylcellulose) (HPC) 108 % of control | dose: 25.0 mg/kg/injection, schedule: Q04DX003 (ip), vehicle: Klucel (hydroxypropylcellulose) (HPC) 108 % of control | dose: 50.0 mg/kg/injection, schedule: Q04DX003 (ip), vehicle: Klucel (hydroxypropylcellulose) (HPC) 112 % of control

C[n+]1ccc(/C(C#N)=N/O)cc1
inactive: [17] 119 % of control | [18] 110 % of control | [19] 109 % of control

Cc1ccccc1-n1c(COc2c(C)cccc2C)n[nH]c1=S
inactive: [3] 93 % of control | [4] 97 % of control | [5] 99 % of control

Reference: PubChem BioAssay AID330 (DTP/NCI, 2004)
